Measured values published in patent US6284785A, “1-arenesulfonyl-2-aryl-pyrrolidine and pyridine derivatives” (Hoffmann- La Roche Inc., priority 1999, dated 2001).
pEC50: −log10 of the molar value.

Target: T1, rat mGlu 1a receptor (Rattus norvegicus, UniProt P23385)
T1 construct: expressed in transfected cells; host or cells: EBNA cells (transient transfection)
Assay: [Ca2+]i measurements (FLIPR, Fluo-3 AM) on mGlu 1a transfected EBNA cells; agonist or antagonist (against 10 μM glutamate)
Assay type: cell-based
Conditions: for Remarks (agonist / antagonist): table of substituents of the Examples, column Remarks
Method: cDNA encoding rat mGlu 1a receptor obtained from Prof. Nakanishi (Kyoto, Japan) was transiently tranfected into EBNA cells using a procedure described by Schlaeger et. al, New Dev. New Appl. Anim Cell Techn., Proc. ESACT Meet., 15th (1998), 105-112 and 117-120. [Ca^2+ ]i measurements were performed on mGlu 1a transfected EBNA cells after incubation of the cells with Fluo-3 AM (0.5 μM final concentration) for 1hour at 37° C. followed by 4 washes with assay buffer (DMEM supplemented with Hank's salt and 20 mM HEPES. [Ca^2+ ]i measurements were done using a fluorometric imaging plate reader (FLIPR, Molecular Devices Corporation, La Jolla, Calif. USA). When compounds were evaluated as antagonists they were tested against 10 μM glutamate as agonist.
The inhibition (antagonists) or activation (agonists) curves were fitted with a four parameter logistic equation giving EC50, IC50, and Hill coefficient using the iterative non linear curve fitting software Origin (Microcal Software Inc., Northampton, Mass., USA).

T1 sequence (P23385 19-1199): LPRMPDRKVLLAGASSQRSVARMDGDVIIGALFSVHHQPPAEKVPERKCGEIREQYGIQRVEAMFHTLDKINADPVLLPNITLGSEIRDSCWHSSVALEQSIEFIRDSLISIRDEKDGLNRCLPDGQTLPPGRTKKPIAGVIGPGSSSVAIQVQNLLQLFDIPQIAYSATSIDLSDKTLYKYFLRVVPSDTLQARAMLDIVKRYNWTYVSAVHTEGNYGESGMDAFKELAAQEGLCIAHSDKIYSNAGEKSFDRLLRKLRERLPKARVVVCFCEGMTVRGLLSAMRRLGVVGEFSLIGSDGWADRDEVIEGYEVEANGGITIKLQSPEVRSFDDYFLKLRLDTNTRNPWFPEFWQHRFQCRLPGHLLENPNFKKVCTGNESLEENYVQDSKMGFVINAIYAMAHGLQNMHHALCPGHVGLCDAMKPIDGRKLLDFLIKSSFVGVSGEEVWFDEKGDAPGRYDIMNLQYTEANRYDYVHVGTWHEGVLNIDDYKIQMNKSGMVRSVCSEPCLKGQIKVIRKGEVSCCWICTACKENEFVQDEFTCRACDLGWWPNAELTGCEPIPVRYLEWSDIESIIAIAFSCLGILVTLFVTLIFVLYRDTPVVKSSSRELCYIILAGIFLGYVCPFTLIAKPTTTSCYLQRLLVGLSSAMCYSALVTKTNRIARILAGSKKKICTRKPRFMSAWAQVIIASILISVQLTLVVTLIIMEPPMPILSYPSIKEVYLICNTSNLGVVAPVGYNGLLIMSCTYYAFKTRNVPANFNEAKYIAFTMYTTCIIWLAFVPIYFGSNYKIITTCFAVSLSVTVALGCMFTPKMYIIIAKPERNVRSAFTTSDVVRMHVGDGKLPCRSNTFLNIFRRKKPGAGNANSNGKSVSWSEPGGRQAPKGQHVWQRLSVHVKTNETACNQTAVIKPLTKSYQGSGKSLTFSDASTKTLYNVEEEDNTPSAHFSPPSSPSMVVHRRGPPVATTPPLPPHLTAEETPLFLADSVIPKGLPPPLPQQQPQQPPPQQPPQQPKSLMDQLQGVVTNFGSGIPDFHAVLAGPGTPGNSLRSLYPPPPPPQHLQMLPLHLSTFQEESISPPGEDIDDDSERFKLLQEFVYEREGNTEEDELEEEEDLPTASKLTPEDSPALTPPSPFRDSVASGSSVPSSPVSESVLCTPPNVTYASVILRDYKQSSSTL

| Compound | Remarks (agonist / antagonist) | further results |
| --- | --- | --- |
| Cc1ccc(S(=O)(=O)N2CCCC2c2ccc(F)cc2)cc1Cl (racemic) [Example 62, (RS)-1-(3-Chloro-4-methyl-benzenesulfonyl)-2-(4-fluoro-phenyl)-pyrrolidine] | Antagonist |  |
| O=S(=O)(c1ccc(F)cc1)N1CCCC1c1ccc(F)c(Cl)c1 (racemic) [Example 44, (RS)-2-(3-Chloro-4-fluoro-phenyl)-1-(4-fluoro-benzenesulfonyl)-pyrrolidine] | Antagonist |  |
| O=S(=O)(c1ccc(Cl)cc1)N1CCCC1c1ccc(F)cc1 (racemic) [Example 11, (RS)-1-(4-Chloro-benzenesulfonyl)-2-(4-fluorophenyl)-pyrrolidine] | Agonist |  |
| Cc1ccc(S(=O)(=O)N2CCCC2c2ccc(Cl)c(Cl)c2)cc1 (racemic) [Example 47, (RS)-2-(3,4-Dichloro-phenyl)-1-(toluene-4-sufonyl)-pyrrolidine] | Antagonist |  |
| O=S(=O)(c1ccccc1)N1CCCC1c1ccc(C(F)(F)F)cc1 (racemic) [Example 75, (RS)-1-Benzenesulfonyl-2-(4-trifluoromethyl-phenyl)-pyrrolidine] | Antagonist |  |
| O=S(=O)(c1ccc(Br)cc1)N1CCCC1c1ccc(F)cc1 (racemic) [Example 26, (RS)-1-(4-Bromo-benzenesulfonyl)-2-(4-fluoro-phenyl)-pyrrolidine] | Agonist | agonistic / antagonistic activity to the mGlu receptor: agonistic activty |
| Cc1ccc(S(=O)(=O)N2CCCC2c2ccc(F)c(Cl)c2)cc1 (racemic) [Example 42, (RS)-2-(3-Chloro-4-fluoro-phenyl)-1-(toluene-4-sulfonyl)-pyrrolidine] | Agonist |  |
| O=S(=O)(c1ccc(Cl)cc1)N1CCC[C@@H]1c1ccc(F)cc1 [Example 76, (R)-1-(4-Chloro-benzenesulfonyl)-2-(4-fluoro-phenyl)-pyrrolidine] | Agonist |  |
| O=S(=O)(c1ccc2ccccc2c1)N1CCCC1c1ccc(F)cc1 (racemic) [Example 66, (RS)-2-(4-Fluoro-phenyl)-1-(naphthalene-2-sulfonyl)-pyrrolidine] | Antagonist |  |
| CC(=O)c1ccc(S(=O)(=O)N2CCCC2c2ccc(F)cc2)cc1 (racemic) [Example 27, (RS)-1-{4-[2-(4-Fluoro-phenyl)-pyrrolidine-1-sulfonyl]-phenyl}-ethanone] | Antagonist |  |
| O=S(=O)(c1ccccc1)N1CCCC1c1ccc(Cl)cc1 (racemic) [Example 13, (RS)-1-Benzenesulfonyl-2-(4-chloro-phenyl)-pyrrolidine] | Agonist |  |
| CCCc1ccc(S(=O)(=O)N2CCCC2c2ccc(F)cc2)cc1 (racemic) [Example 59, (RS)-2-(4-Fluoro-phenyl)-1-(4-propyl-benzenesulfonyl)-pyrrolidine] | Antagonist |  |
| Cc1ccc(S(=O)(=O)N2CCCC2c2ccco2)cc1 (racemic) [Example 69, (RS)-2-Furan-2-yl-1-(toluene-4-sulfonyl)-pyrrolidine] | Agonist | agonistic / antagonistic activity to the mGlu receptor: agonistic activty |
| O=S(=O)(c1ccc(F)cc1)N1CCCC1c1ccc(C(F)(F)F)cc1 (racemic) [Example 50, (RS)-1-(4-Floro-benzenesulfonyl)-2-(4-trifluoromethyl-phenyl)-pyrrolidine] | Antagonist |  |
| CN(C)c1ccc(C2CCCN2S(=O)(=O)c2ccc(F)cc2)cc1Cl (racemic) [Example 46, (RS)-1-(4-fluoro-benzenesulfonyl)-2-(4-diimethylamino-3-chloro-phenyl)-pyrrolidine] | Antagonist |  |
| Cc1ccc(S(=O)(=O)N2CCCC2c2ccc(Cl)cc2)cc1 (racemic) [Example 8, (RS)-2-(4-Chloro-phenyl)-1-(toluene-4-sulfonyl)-pyrrolidine] | Agonist | agonistic / antagonistic activity to the mGlu receptor: agonistic activty |
| Cc1ccc(S(=O)(=O)N2CCCC2c2cccc(C)c2)cc1 (racemic) [Example 28, (RS)-1-(Toluene-4-sulfonyl)-2-m-tolyl-pyrrolidine] | Agonist |  |
| Cc1ccc(S(=O)(=O)N2CCCC2c2ccc(Cl)c(C)c2)cc1 (racemic) [Example 58, (RS)-2-(4-Chloro-3-methyl-phenyl)-1-(toluene-4-sulfonyl)-pyrrolidine] | Agonist | agonistic / antagonistic activity to the mGlu receptor: agonistic activty |
| Cc1ccc(S(=O)(=O)N2CCCC2c2cccs2)cc1 (racemic) [Example 37, (RS)-2-Thien-2-yl-1-(toluene-4-sulfonyl)-pyrrolidine] | Antagonist |  |
| Cc1ccc(S(=O)(=O)N2CCCC2c2ccc(F)cc2)cc1 (racemic) [Example 12, (RS)-2-(4-Fluoro-phenyl)-1-(toluene-4-sulfonyl)-pyrrolidine] | Agonist |  |
| Cc1ccc(S(=O)(=O)N2CCCC2c2ccccc2)cc1 (racemic) [Example 4, (RS)-2-Phenyl-1-(toluene-4-sulfonyl)-pyrrolidine] | Agonist | agonist/antagonist (activity-data table): agonist; pEC50 (agonist, activation of mGlu 1a in EBNA cells, read-out: IC50 (compounds marked agonist)): 6.64 |
| CN(C)c1ccc(C2CCCN2S(=O)(=O)c2ccc(Cl)cc2)cc1Cl (racemic) [Example 45, (RS)-1-(4-Chloro-benzenesulfonyl)-2-(4-dimethylamino-3-chloro-phenyl)-pyrrolidine] | Antagonist |  |
| Cc1ccc(S(=O)(=O)N2CC[C@@H](CO)[C@@H]2c2ccc(F)cc2)cc1 (racemic) [Example 91, (2RS,3 RS)-[2-(4-Fluoro-phenyl)-1-(toluene-4-sulfonyl)-pyrrolidin-3-yl]-methanol] | agonist | agonistic / antagonistic activity to the mGlu receptor: agonistic activty |
| Cc1ccc(S(=O)(=O)N2CCCC2c2cccc(F)c2)cc1 (racemic) [Example 1, (RS)-2-(3-Fluoro-phenyl)-1-(toluene-4-sulfonyl)-pyrrolidine] | Agonist |  |
| Cc1ccc(S(=O)(=O)N2CCCC2c2ccccc2Cl)cc1 (racemic) [Example 51, (RS)-2-(2-Chloro-phenyl)-1-(toluene-4-sulfonyl)-pyrrolidine] | Antagonist |  |
| Cc1ccc(S(=O)(=O)N2CCCC2c2ccc(N(C)C)c(F)c2)cc1 (racemic) [Example 41, (RS)-1-(p-Toluenesulfonyl)-2-(4-dimethylamino-3-fluoro-phenyl)-pyrrolidine] | Antagonist |  |
| COc1cccc(C2CCCN2S(=O)(=O)c2ccc(Cl)cc2)c1 (racemic) [Example 34, (RS)-1-(4-Chloro-benzenesulfonyl)-2-(3-methoxy-phenyl)-pyrrolidine] | Antagonist |  |
| Cc1ccc(S(=O)(=O)N2CCCC2c2ccsc2)cc1 (racemic) [Example 55, (RS)-2-Thien-3-yl-1-(toluene-4-sulfonyl)-pyrrolidine] | Agonist | agonistic / antagonistic activity to the mGlu receptor: agonistic activty |
| O=S(=O)(c1ccc(F)cc1)N1CCCC1c1ccco1 (racemic) [Example 70, (RS)-1-(4-Fluoro-benzenesulfonyl)-2-furan-2-yl-pyrrolidine] | Antagonist |  |
